Test results as given in patent publication US10294470B2, “Electronic expression of the inward rectifier in cardiocytes derived from human induced pluripotent stem cells” (The Research Foundation for The State University of New York, priority 2013, dated 2019).

Tested on: h-iPSC-derived cardiac myocytes
Experiment: Current clamp action potential recording in paced h-iPSC-derived cardiac myocytes with and without electronic IK1
Assay type: cell-based, human
Details: 1 μM; for effect on action potential duration (APD): paced cells with electronic expression of IK1,synthetic; for effect on action potential duration / repolarization / effect on spontaneous activity: paced cells without electronic IK1
Description: Commercially-available iPSC-derived cardiac myocytes (iCell Dynamics, WI), were prepared according to manufacturer's instructions. Briefly, ICELL® cardiac myocytes (cryopreserved single-cell suspensions in 1 ml cryovials) were stored in liquid nitrogen. Vials were thawed in a waterbath (37° C.). Cells were washed then rinsed with 1 ml of RT “ICELL® Cardiomyocyte Plating Medium.” An additional 8 ml of plating medium was added and cells mixed with solution by gentile inversion. Cardiocytes were seeded on 15 mm cover-slips coated with 0.01% (w/v) gelatin solution in 12-well plates. Cardiocytes were seeded (20,000-40,000/dish) in 2 ml of RT plating medium, permitting single cell culture, and incubated for 2+ days at 37° C., 7% CO2. Non adherent cells were removed by rinsing with “ICELL® Cardiomyocyte Maintenance Medium.” A further 2 ml of maintenance medium was added. Maintenance medium was changed every 2 days, and cells were used within 1 week.
iPSC-derived cardiocytes were voltage clamped. Currents were recorded using whole-cell clamp at RT. Cells in the recording chamber (300 μl) were continuously perfused with Tyrode. Pipettes fabricated from borosilicate glass (Flaming/Brown horizontal micropipette puller) and tips heat-polished (NARISHIGE® microforge). Pipettes contained (mM): 10 NaCl, 125 KCl, 1 MgSO4, 5 EGTA, 5 ATP (Mg salt), 5 Tris-creatinephosphate, 0.3 GTP, 10 HEPES, pH 7.2. Extracellular solution (mM): 150 NaCl, 5.4 KCl, 0.5 Na2HPO4, 1 MgCl2, 2 CaCl2), 10 glucose, 10 HEPES, pH7.4. After establishing a seal (1-10 Gohm), suction and voltage pulses were used to rupture the patch. Currents were recorded (Axopatch-1D, Molecular Dynamics, CA) and interfaced to a PENTIUM® 4 computer via a DIGIDATA® 1322A (Molecular Dynamics, CA). PCLAMP® 9.0 (Molecular Dynamics, CA) was used to control protocols and data acquisition.
We used an Analog and Digital I/O board PCIe-DAS1602/16 (Measurement Computing Corporation) installed on a on a DELL PRECISION® T7500 workstation with 2 INTEL® XEON® CPU E5520 to transfer the Vm signal to the signal of IK1 current. Source code is in the supplement.
Analysis was performed using PCLAMP® 9 (Molecular Dynamics). Action potential duration (APD) was computed for 50% (APD50) and 90% (APD90) of repolarization in ms. Maximum rate of rise of the AP upstroke was determined (dVm/dtmax) in mV/ms. Resting membrane potential was recorded prior to each AP. For spontaneous APs, the diastolic characteristics were reported for the period of time between complete AP repolarization and the beginning of depolarization in the subsequent AP. Duration, and minimum/mean potentials were computed for the diastolic period.
In order to overcome the lack of IK1 in h-iPSC-derived cardiac myocytes, we developed a variation of the dynamic clamp approach to inject a synthetic version of IK1 (FIG. 1). The center of the system is the isolated h-iPSC-derived cardiac myocyte under whole cell voltage or current clamp. Whole cell clamp is accomplished with a gigaseal under conventional current clamp mode. The membrane voltage of the cardiac myocyte is output from the amplifier and fed into a computer via a digitizer which calculates the inward rectifier current for the membrane potential, according to the equation shown in FIG. 1. The calculated value of IK1,Synthetic is passed through a potentiometer (used to adjust amplitude without sacrificing digital resolution) to scale IK1 and then summed with the standard stimulation input from PCLAMP®. A switch allows rapid changes between conventional current clamp and summed input. When the summed input is switched on, the myocyte receives the sum of two inputs: the standard AP stimulus current plus IK1,Synthetic from the real-time current simulator. The standard voltage clamp electronics can be driven via the summing circuit without modification of conventional voltage clamp and data recording with only minor software selection changes of input/output channels. […]

COC(=O)C1=C(C)NC(C)=C([N+](=O)[O-])C1c1ccccc1C(F)(F)F (stereo not drawn) [BayK-8644]
effect on action potential duration (APD): clear AP prolongation
effect on action potential duration (APD) (listed as BayK8644): APD is prolonged
effect on action potential duration / repolarization: not uniformly observed
effect on spontaneous activity: termination of spontaneous full scale AP activity
effect on action potential duration / repolarization (listed as BayK8644): severely shortened repolarization
effect on spontaneous activity (listed as BayK8644): terminated spontaneous activity
arrhythmogenic phenomenon of alternans (with IK1,synthetic): alternans is observed
Ratio of APD90 with/without BayK8644 (with IK1,synthetic expression): major increase in APD
Ratio of APD90 with/without BayK8644 (without IK1,synthetic expression): anomalous decrease in APD90
